# Data published in US20070203066A1, “Compositions and methods for inhibiting cellular proliferation” (priority 2005, published 2007).
# Non-standard residues stand in square brackets, D forms with d. Primed or numbered codes have the meaning given here. No end group written: not given here. Ida = iminodiacetic acid linker, its two carboxyls bind the Lys side-chain amines of two peptides, giving a homodimer; Ida(3) = iminodiacetic acid linker, Lys side-chain amines bound to its two carboxyl groups; Ida(4) = iminodiacetic acid linker (dimerization linker bound to lysine side chain); Ida″ = iminodiacetic acid linker bound to the Lys side-chain amine, forming a dimer; Dip = N[C@H](C(=O)O)C(c1ccccc1)c1ccccc1; Phg = N[C@H](C(=O)O)c1ccccc1
# Tested on: HUVECs
# Assay type: cell-based
# Conditions: HUVEC proliferation, bFGF at 10 ng/ml or VEGF at 5 ng/ml, 48 hours, BrdU incorporation; read-out: IC50 on HUVECs
# How it was run: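 Proliferation read-out: BrdU incorporation after 48-hour culture (37 ° C, 5% CO2) with graded peptide doses. Cells were in EBM with 2% FCS at 5,000 per well, driven by VEGF (5 ng/ml) or bFGF (10 ng/ml), added after ≥12-hour attachment.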
row,Substance,IC50
1,435 (Ac-RRRRGQAVAIYFK(Ida(4)); not fully specified (C-terminus); also: homodimer via Ida linker at K13) [compound 435],< 10 µM
2,425 (Ac-ARRRRQRVAIKF; not fully specified (residue 11); also: homodimer of residues 1-12 via Ida linker on Lys11 side chain) [compound 425],< 10 µM
3,"400 (Ac-DRRRRQAVAIYFK; not fully specified (residue 13, C-terminus); also: homodimer of residues 1-13 via Ida linker at Lys13 side chain) [compound 400]",< 10 µM
4,351 (Ac-ARRRRQRVAIYGK-NH2; not fully specified (residue 13); also: homodimer of residues 1-13 via Ida linker on K13 side chain) [compound 351],> 30 µM
5,466 (Ac-AK(Ida(3))RRRQAVAIYF; also: homodimer via Ida linker on Lys2 side chain) [compound 466],> 30 µM
6,"201 (Ac-RARRRQRVAIIF; also: dimer: C-terminal Phe bound to an amino group of a Lys linker, 2 chains per Lys) [compound 201]",< 10 µM
7,RKKQRVKIAYEEIFV [compound 64],10 to 30 µM
8,KTKRARKKQRVKIIFVQNM [compound 119],< 10 µM
9,241 (Ac-RRHRHQRVRIIF; also: dimer via C-terminal Phe to Lys linker) [compound 241],< 10 µM
10,239 (Ac-RHRRRQRVHIIF; also: dimer via C-terminal Phe to Lys linker) [compound 239],< 10 µM
11,232 (XRRRHQRVRIIF; Xaa = Acylated Histidine; Dimeric peptide wherein the C terminus of Phe in position 12 of one peptide chain is covalently bound to one of the amino groups of a Lysine linker and Phe of the remaining peptide chain is covalently bound to the other amino group of the Lysine linker.) [compound 232],< 10 µM
12,507 (Ac-RGDSPGGARRRRQRVAIYFK; also: homodimer via Ida linker on Lys20 side chain) [compound 507],< 10 µM
13,KTKRKRKKQRVKIAYEEIFVQ [compound 26],< 10 µM
14,365 (Ac-ARRRRQRVATYFK-NH2; not fully specified (residue 13); also: homodimer of residues 1-13 via Ida linker on K13 side chain) [compound 365],> 30 µM
15,223 (Ac-ARRRRQRVAIGFK; also: homodimer via Ida linker on side chain of Lys13) [compound 223],> 30 µM
16,205 (Ac-RRARRQRVAIIF; also: dimer: Phe C-termini joined via Lys linker) [compound 205],< 10 µM
17,"343 (Ac-ARRRRQRVAIY[Phg]K-NH2; not fully specified (residue 13); also: homodimer via Lys13 side chain, Ida linker) [compound 343]",< 10 µM
18,"333 (Ac-RHHRRQHVRIYFK; not fully specified (residue 13, C-terminus); also: homodimer via Ida linker on Lys13 side chain) [compound 333]",< 10 µM
19,KTKRKRKKQRAKIIFVQNM [compound 113],< 10 µM
20,272 (Ac-RARRRQAVAINFK-NH2; not fully specified (residue 13); also: homodimer via Ida linker on Lys13 side chain) [compound 272],< 10 µM
21,"369 (Ac-ARRRRQRVAQYFK-NH2; not fully specified (residue 13); also: homodimer via Ida linker on Lys13 side chain, Boc on Ida amine) [compound 369]",> 30 µM
22,278 (Ac-RRRRRQHVHIYFK-NH2; not fully specified (residue 13); also: homodimer: Lys13 side chain bound to Ida linker) [compound 278],< 10 µM
23,484 (Ac-ARRRNQAVAIKF; not fully specified (residue 11); also: homodimer: Lys11 side chain bound to Ida linker (Boc on Ida N)) [compound 484],< 10 µM
24,305 (Ac-RRRRRQAVRIIK(Ida)VN; also: homodimer via Ida linker on Lys12 side chain) [compound 305],< 10 µM

row,Substance,IC50
1,257 (Ac-ARRRRQR[dV]AIIFK; not fully specified (C-terminus); also: homodimer: side chain of Lys13 bound to an Ida linker) [compound 257],< 10 µM
2,"412 (Ac-VRRRRQAVAIYFK; not fully specified (residue 13, C-terminus); also: homodimer via Ida linker on Lys side chains, linker at 13 via Ida, other end not in the chain) [compound 412]",< 10 µM
3,174 (Ac-RARRRQRVRIIF; also: homodimer via C-terminal Lys linker) [compound 174],< 10 µM
4,"502 (Ac-PRRHRQAVAIYFK; not fully specified (residue 13, C-terminus); also: homodimer via Ida linker on Lys13 side chain) [compound 502]",10 to 30 µM
5,KTKRKAKKQRVKIIFVQNM [compound 118],< 10 µM
6,439 (Ac-RRRRPQAVAIYFK(Ida(4)); not fully specified (C-terminus); also: homodimer via Ida linker at K13) [compound 439],< 10 µM
7,KTKRKAAKQRVKIAYEEIFVQNM [compound 54],> 30 µM
8,491 (Ac-PRRRRQPVAIK(Ida″)F; also: homodimer via Ida linker on Lys11 side chain) [compound 491],10 to 30 µM
9,361 (Ac-ARRRRQRVAIYFK; not fully specified) [compound 361],> 30 µM
10,499 (Ac-PRYRRQAVAIYFK(Ida″); not fully specified (C-terminus); also: homodimer via Ida linker on Lys13 side chain) [compound 499],< 10 µM
11,175 (Ac-RRARRQRVRIIF; also: homodimer via C-terminal Lys linker) [compound 175],< 10 µM
12,259 (Ac-ARRRR[dQ]RVAIIFK-NH2; not fully specified (residue 13); also: homodimer via Ida linker on Lys13 side chains) [compound 259],< 10 µM
13,261 (Ac-ARR[dR]RQRVAIIFK-NH2; not fully specified (residue 13); also: homodimer via Ida linker on Lys13 side chains) [compound 261],< 10 µM
14,224 (Ac-ARRRRQRVAIHFK; also: homodimer via Ida linker on side chain of Lys13) [compound 224],< 10 µM
15,169 (Ac-KRRRRRQRVRIIF; also: homodimer via Ida linker on Lys1 side chains) [compound 169],< 10 µM
16,KRKRKKQRVKIAYEEIFVQNM [compound 20],> 30 µM
17,229 (XHRRRQRVRIIF; Xaa = Acylated Histidine; Dimeric peptide wherein the C terminus of Phe in position 12 of one peptide chain is covalently bound to one of the amino groups of a Lysine linker and Phe of the remaining peptide chain is covalently bound to the other amino group of the Lysine linker.) [compound 229],< 10 µM
18,"371 (Ac-ARRRRQRVAYYFK-NH2; not fully specified (residue 13); also: homodimer via Ida linker on Lys13 side chain, Boc on Ida amine) [compound 371]",< 10 µM
19,222 (XHHHHQAVAIIF; Xaa = Acylated Histidine; Dimeric peptide wherein the C terminus of Phe in position 12 of one peptide chain is covalently bound to one of the amino groups of a Lysine linker and Phe of the remaining peptide chain is covalently bound to the other amino group of the Lysine linker.) [compound 222],> 30 µM
20,234 (XRRRRQRVHIIF; Xaa = Acylated Histidine; Dimeric peptide wherein the C terminus of Phe in position 12 of one peptide chain is covalently bound to one of the amino groups of a Lysine linker and Phe of the remaining peptide chain is covalently bound to the other amino group of the Lysine linker.) [compound 234],< 10 µM
21,357 (Ac-RRRRRQAVRIQIQFK; not fully specified) [compound 357],10 to 30 µM
22,TKRKRKKQRVKIAYEEIFVKNM [compound 2],10 to 30 µM
23,350 (Ac-ARRRRQRVAIY[Dip]K-NH2; not fully specified (residue 13); also: homodimer of residues 1-13 via Ida linker on K13 side chain) [compound 350],< 10 µM
24,"408 (Ac-PRRRRQAVAIYFK; not fully specified (residue 13, C-terminus); also: homodimer via Ida linker on Lys side chains, linker at 13 via Ida, other end not in the chain) [compound 408]",< 10 µM
